This assay concerns the target T1, human recombinant HPK1 (Homo sapiens, UniProt Q92918).
T1 construct: purchased BPS Bioscience
As to the kind of experiment: Inhibitory activity against human recombinant HPK1 (TR-FRET). Type of assay: biochemical. The conditions noted are these: ULight-p70S6K peptide, ATP at Km, room temperature, 1 hour, 0.32 to 1000 nM compound. An outline of the steps:
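IC50 classes A–D use 10, 50 and 100 nM cut-offs, derived from TR-FRET signal inhibition relative to DMSO controls. Human recombinant HPK1 phosphorylated ULight-p70S6K peptide at Km ATP for 1 h, room temperature, pH 7.4; test range 0.32–1000 nM final, detection with Eu-labelled antibody after EDTA quench.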
(In TR-FRET formats the signal depends on donor and acceptor labels being close together.)

Structures are written as SMILES. Counter-ions that a name gives are not always drawn. A value given as a limit tells only on which side of the number the result lay.

The text below walks through data of patent publication US20260347338A1, “PYRIMIDINE/PYRIDINE DERIVATIVES OR SALTS THEREOF AND PHARMACEUTICAL COMPOSITIONS COMPRISING THE SAME” (YUHAN CORPORATION, priority 2023, published 2026).

T1 sequence (Q92918 whole entry): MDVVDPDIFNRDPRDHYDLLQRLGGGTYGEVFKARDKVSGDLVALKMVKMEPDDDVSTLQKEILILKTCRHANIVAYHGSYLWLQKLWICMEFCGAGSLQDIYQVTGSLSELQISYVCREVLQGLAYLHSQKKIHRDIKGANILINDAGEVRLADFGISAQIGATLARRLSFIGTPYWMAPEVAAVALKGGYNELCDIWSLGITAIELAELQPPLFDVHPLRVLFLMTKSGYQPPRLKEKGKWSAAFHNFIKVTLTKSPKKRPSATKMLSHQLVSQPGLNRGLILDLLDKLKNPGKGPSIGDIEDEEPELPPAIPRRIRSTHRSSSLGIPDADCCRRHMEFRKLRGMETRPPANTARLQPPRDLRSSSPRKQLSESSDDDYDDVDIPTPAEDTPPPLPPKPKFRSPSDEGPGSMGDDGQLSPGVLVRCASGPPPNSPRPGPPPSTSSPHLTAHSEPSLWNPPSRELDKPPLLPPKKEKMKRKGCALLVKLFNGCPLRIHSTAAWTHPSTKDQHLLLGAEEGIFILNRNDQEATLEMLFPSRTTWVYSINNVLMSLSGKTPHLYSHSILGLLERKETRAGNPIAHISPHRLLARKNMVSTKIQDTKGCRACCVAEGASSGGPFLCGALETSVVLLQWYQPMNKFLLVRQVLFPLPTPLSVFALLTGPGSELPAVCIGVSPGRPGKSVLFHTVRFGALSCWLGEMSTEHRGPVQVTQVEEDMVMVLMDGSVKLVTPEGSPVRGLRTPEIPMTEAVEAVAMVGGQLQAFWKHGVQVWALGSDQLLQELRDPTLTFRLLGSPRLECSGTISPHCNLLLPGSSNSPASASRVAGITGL

As usually defined, the IC50 is the concentration at which inhibition is half-maximal. Take `COc1cccc(F)c1-c1nccc(Nc2cc(N3CCC[C@H](N)C3)c(-c3cnn(CCCN(C)C)c3)cn2)n1` [Example 236, (S)-N-(4-(3-aminopiperidin-1-yl)-5-(1-(3-(dimethylamino)propyl)-1H-pyrazol-4-yl)pyridin-2-yl)-2-(2-fluoro-6-methoxyphenyl)pyrimidin-4-amine hydrochloride]: the IC50 is no more than 10 nM.

Turning to `COc1cccc(F)c1-c1nccc(Nc2cc(N3CCC[C@H](N)C3)c(-c3cnn(CC4CNC4)c3)cn2)n1` [Example 237, (S)-N-(4-(3-aminopiperidin-1-yl)-5-(1-(azetidin-3-ylmethyl)-1H-pyrazol-4-yl)pyridin-2-yl)-2-(2-fluoro-6-methoxyphenyl)pyrimidin-4-amine hydrochloride], the IC50 is no more than 10 nM.

In the case of `COc1cccc(F)c1-c1nccc(Nc2cc(N3CCC[C@H](N)C3)c(-c3cnn([C@@H]4CCNC4)c3)cn2)n1` [Example 238, N-(4-((S)-3-aminopiperidin-1-yl)-5-(1-((R)-pyrrolidin-3-yl)-1H-pyrazol-4-yl)pyridin-2-yl)-2-(2-fluoro-6-methoxyphenyl)pyrimidin-4-amine hydrochloride], the half-inhibitory concentration (IC50) was no more than 10 nM. Turning to `COc1cccc(F)c1-c1nccc(Nc2cc(N3CCC[C@H](N)C3)c(-c3cnn([C@H]4CCNC4)c3)cn2)n1` [Example 239, N-(4-((S)-3-aminopiperidin-1-yl)-5-(1-((S)-pyrrolidin-3-yl)-1H-pyrazol-4-yl)pyridin-2-yl)-2-(2-fluoro-6-methoxyphenyl)pyrimidin-4-amine hydrochloride], the IC50 is no more than 10 nM.

Take `COc1cccc(F)c1-c1nccc(N(CCN(C)C)c2cc(N3CCC[C@H](N)C3)c(-c3ccc(N)nc3)cn2)n1` [Example 240, (S)-4-(3-aminopiperidin-1-yl)-N^6-(2-(dimethylamino)ethyl)-N^6-(2-(2-fluoro-6-methoxyphenyl)pyrimidin-4-yl)-[3,3′-bipyridin]-6,6′-diamine hydrochloride]: the IC50 is no more than 10 nM.

Take `COc1cccc(F)c1-c1nccc(Nc2cc(N3CCC[C@H](N)C3)c(-c3ccc(N4CCNCC4)nc3)cn2)n1` [Example 241, (S)-4-(3-aminopiperidin-1-yl)-N-(2-(2-fluoro-6-methoxyphenyl)pyrimidin-4-yl)-6′-(piperazin-1-yl)-[3,3′-bipyridin]-6-amine hydrochloride]: the IC50 is no more than 10 nM.

As to `N[C@H]1CCCN(c2cc(Nc3ccnc(-c4c(F)cccc4CO)n3)ncc2-c2cnn(C(F)F)c2)C1` [Example 242, (S)-(2-(4-((4-(3-aminopiperidin-1-yl)-5-(1-(difluoromethyl)-1H-pyrazol-4-yl)pyridin-2-yl)amino)pyrimidin-2-yl)-3-fluorophenyl)methanol hydrochloride], the IC50 was no more than 10 nM.

Regarding `N[C@H]1CCCN(c2cc(Nc3ccnc(-c4c(F)cccc4CO)n3)ncc2C#Cc2cnn(C(F)F)c2)C1` [Example 243, (S)-(2-(4-((4-(3-aminopiperidin-1-yl)-5-((1-(difluoromethyl)-1H-pyrazol-4-yl)ethynyl)pyridin-2-yl)amino)pyrimidin-2-yl)-3-fluorophenyl)methanol hydrochloride], the IC50 is no more than 10 nM. As to `COCC(C)(C)n1cc(-c2cnc(Nc3ccnc(-c4c(F)cccc4OC)n3)cc2N2CCC[C@H](N)C2)cn1` [Example 244, (S)-N-(4-(3-aminopiperidin-1-yl)-5-(1-(1-methoxy-2-methylpropan-2-yl)-1H-pyrazol-4-yl)pyridin-2-yl)-2-(2-fluoro-6-methoxyphenyl)pyrimidin-4-amine hydrochloride], the IC50 is no more than 10 nM. As to `COc1cccc(F)c1-c1nccc(Nc2cc(N3CCC[C@H](N)C3)c(-c3cnn(CC4CC(F)(F)C4)c3)cn2)n1` [Example 245, (S)-N-(4-(3-aminopiperidin-1-yl)-5-(1-((3,3-difluorocyclobutyl)methyl)-1H-pyrazol-4-yl)pyridin-2-yl)-2-(2-fluoro-6-methoxyphenyl)pyrimidin-4-amine hydrochloride], the IC50 is no more than 10 nM. With `COc1cccc(F)c1-c1nccc(Nc2cc(N3CCC[C@H](N)C3)c(-c3cnn(CCN(C)C)c3)cn2)n1` [Example 246, (S)-N-(4-(3-aminopiperidin-1-yl)-5-(1-(2-(dimethylamino)ethyl)-1H-pyrazol-4-yl)pyridin-2-yl)-2-(2-fluoro-6-methoxyphenyl)pyrimidin-4-amine hydrochloride], the IC50 is no more than 10 nM. As for `COc1cccc(F)c1-c1nccc(Nc2cc(N3CCC[C@H](N)C3)c(-c3cnn(CF)c3)cn2)n1` [Example 247, (S)-N-(4-(3-aminopiperidin-1-yl)-5-(1-(fluoromethyl)-1H-pyrazol-4-yl)pyridin-2-yl)-2-(2-fluoro-6-methoxyphenyl)pyrimidin-4-amine hydrochloride], the IC50 was no more than 10 nM. Take `COc1cccc(F)c1-c1nccc(Nc2cc(N3CCC[C@H](N)C3)c(-c3ccc(C4CCNCC4)nc3)cn2)n1` [Example 248, (S)-4-(3-aminopiperidin-1-yl)-N-(2-(2-fluoro-6-methoxyphenyl)pyrimidin-4-yl)-6′-(piperidin-4-yl)-[3,3′-bipyridin]-6-amine hydrochloride]: the IC50 was no more than 10 nM. As for `COc1cccc(F)c1-c1nccc(Nc2cc(N3CCC[C@H](N)C3)c(-c3ccc(OCCN(C)C)nc3)cn2)n1` [Example 249, (S)-4-(3-aminopiperidin-1-yl)-6′-(2-(dimethylamino)ethoxy)-N-(2-(2-fluoro-6-methoxyphenyl)pyrimidin-4-yl)-[3,3′-bipyridin]-6-amine hydrochloride], the IC50 was no more than 10 nM. To `CCNC(=O)Nc1ccc(-c2cnc(Nc3ccnc(-c4c(F)cccc4OC)n3)cc2N2CCC[C@H](N)C2)cn1` [Example 250, (S)-1-(4′-(3-aminopiperidin-1-yl)-6′-((2-(2-fluoro-6-methoxyphenyl)pyrimidin-4-yl)amino)-[3,3′-bipyridin]-6-yl)-3-ethylurea hydrochloride] belongs no more than 10 nM. `COc1cc(C(=O)N2CC[C@@H](F)C2)cc(F)c1-c1nccc(Nc2cc(N3CCC[C@H](N)C3)c(-c3cnn(C(F)F)c3)cn2)n1` [Example 251, (4-(4-((4-((S)-3-aminopiperidin-1-yl)-5-(1-(difluoromethyl)-1H-pyrazol-4-yl)pyridin-2-yl)amino)pyrimidin-2-yl)-3-fluoro-5-methoxyphenyl)((R)-3-fluoropyrrolidin-1-yl)methanone]: the IC50 is no more than 10 nM. `COc1cccc(F)c1-c1nccc(Nc2cc(N3C[C@@H](N)CC[C@H]3C)c(-c3cnn(C(F)F)c3)cn2)n1` [Example 252, N-(4-((2R,5S)-5-amino-2-methylpiperidin-1-yl)-5-(1-(difluoromethyl)-1H-pyrazol-4-yl)pyridin-2-yl)-2-(2-fluoro-6-methoxyphenyl)pyrimidin-4-amine]: the IC50 is no more than 10 nM. As for `COc1cccc(F)c1-c1nccc(Nc2cc(N3CC[C@H](OC)[C@H](N)C3)c(-c3cnn(C(F)F)c3)cn2)n1` [Example 253, N-(4-((3R,4S)-3-amino-4-methoxypiperidin-1-yl)-5-(1-(difluoromethyl)-1H-pyrazol-4-yl)pyridin-2-yl)-2-(2-fluoro-6-methoxyphenyl)pyrimidin-4-amine], the IC50 is no more than 10 nM. As to `COc1cccc(F)c1-c1nccc(Nc2cc(N3CC[C@@H](OC)[C@H](N)C3)c(-c3cnn(C(F)F)c3)cn2)n1` [Example 254, N-(4-((3R,4R)-3-amino-4-methoxypiperidin-1-yl)-5-(1-(difluoromethyl)-1H-pyrazol-4-yl)pyridin-2-yl)-2-(2-fluoro-6-methoxyphenyl)pyrimidin-4-amine], the IC50 is no more than 10 nM. On to `COc1cccc(F)c1-c1nccc(Nc2cc(N3CCC[C@H](N)C3)c(-c3ccc(C(=O)N4CCOCC4)cc3)cn2)n1` [Example 255, (S)-(4-(4-(3-aminopiperidin-1-yl)-6-((2-(2-fluoro-6-methoxyphenyl)pyrimidin-4-yl)amino)pyridin-3-yl)phenyl)(morpholino)methanone hydrochloride], for which the IC50 is no more than 10 nM.

For the molecule `COc1cccc(F)c1-c1nccc(Nc2cc(N3CCC[C@H](N)C3)c(-c3cnc4c(c3)OCCN4C)cn2)n1` [Example 256, (S)-N-(4-(3-aminopiperidin-1-yl)-5-(4-methyl-3,4-dihydro-2H-pyrido[3,2-b][1,4]oxazin-7-yl)pyridin-2-yl)-2-(2-fluoro-6-methoxyphenyl)pyrimidin-4-amine hydrochloride], the IC50 is no more than 10 nM. `COc1cccc(F)c1-c1nccc(Nc2cc(N3CCC[C@H](N)C3)c(-c3ccc4c(c3)OCCN4C)cn2)n1` [Example 257, (S)-N-(4-(3-aminopiperidin-1-yl)-5-(4-methyl-3,4-dihydro-2H-benzo[b][1,4]oxazin-7-yl)pyridin-2-yl)-2-(2-fluoro-6-methoxyphenyl)pyrimidin-4-amine hydrochloride]: the IC50 is no more than 10 nM. As for `COc1cccc(F)c1-c1nccc(Nc2cc(N3CCC[C@H](N)C3)c(-c3ccc4c(c3)COC(=O)N4)cn2)n1` [Example 258, (S)-6-(4-(3-aminopiperidin-1-yl)-6-((2-(2-fluoro-6-methoxyphenyl)pyrimidin-4-yl)amino)pyridin-3-yl)-1,4-dihydro-2H-benzo[d][1,3]oxazin-2-one hydrochloride], the IC50 was no more than 10 nM.

`COc1cccc(F)c1-c1nccc(Nc2cc(N3CCC[C@H](N)C3)c(-c3ccc(N4CCCC4=O)cc3)cn2)n1` [Example 259, (S)-1-(4-(4-(3-aminopiperidin-1-yl)-6-((2-(2-fluoro-6-methoxyphenyl)pyrimidin-4-yl)amino)pyridin-3-yl)phenyl)pyrrolidin-2-one hydrochloride]: the half-maximal inhibitory concentration (IC50) is no more than 10 nM. For `COc1cccc(F)c1-c1nccc(Nc2cc(N3CCC[C@H](N)C3)c(-c3ccc4c(c3)OCC(=O)N4)cn2)n1` [Example 260, (S)-7-(4-(3-aminopiperidin-1-yl)-6-((2-(2-fluoro-6-methoxyphenyl)pyrimidin-4-yl)amino)pyridin-3-yl)-2H-benzo[b][1,4]oxazin-3(4H)-one hydrochloride], the IC50 is no more than 10 nM.
